Test results as given in patent US9632085B2, “Rapid antibiotic susceptibility testing” (PRESIDENT AND FELLOWS OF HARVARD COLLEGE, priority 2012, dated 2017).

Experiments:
[1] = tested on: DH5alpha E. coli; experiment: FcMBL bead captured bacteria cultured 2 hours in LB with or without antibiotic, quantified on LB Agar plates; format: cell-based; settings: 2 hours at 37° C. in LB; Carbenicillin 100 μg/ml (FIG. 3 legend); range of titers down to 300 colonies
Description: In preliminary studies, the inventors tested the discrimination of the antibiotic susceptibility assay described herein with a range of titers of DH5alpha E. coli (corresponding to blood titers from a range of sepsis patients from septic shock to SIRS) FcMBL bead captured bacteria were cultured for 2 hours at 37° C. with vigorous agitation/aeration in Luria Broth (LB) or in LB supplemented with the bacteriocidal antibiotic Carbenicillin or the bacteriostatic antibiotic Spectomycin. The bacteria were quantified on LB Agar plates. In all cases, the inventors were able to discriminate between the growth in LB compared with growth in LB with bacteriocidal or bacteriostatic antibiotic (see FIG. 3).

[2] = tested on: E. coli; experiment: Antibiotic susceptibility from single bacterium: FcMBL bead capture, gel matrix, resazurin/Sytox Green 11 live-dead imaging; format: cell-based; settings: kanamycin at 50 μg/ml in BHI; captured E. coli grown in gel matrix; time after antibiotic addition
Description: Bacteria in a biological sample were captured by FcMBL coated magnetic beads. The bead/bacteria were washed and added to a microscope compatible surface (for example, plasma treated coverslip or glass bottom microplates) and immobilized by an underlying magnet. A low melt agarose gel 37° C. containing growth media (BHI), resazurin (a stain for labeling live cells), and Sytox Green 11 (a stain for labeling dead cells) was overlaid on the bacteria-bound FcMBL magnetic beads to immobilize and/or secure the bacteria in place. In some embodiments where the bead/bacteria were spotted on glass bottom microplates, the wells were filled with growth medium containing fluorescent stains for live and/or dead cells. The captured bacteria were incubated on the slide or in the wells for about 1-2 hours at about 36-37° C. and imaged by microscopy, e.g., fluorescent microscopy. Live cells could be identified by resorufin (metabolized resazurin) stain and coordinates of the live cells could be determined and stored for iterative imaging. […] Bacteria can be observed for, for example, growth in the presence of the antibiotics (to determine the resistance of the bacteria to the particular antibiotics), cell death determined by fluorescent stain for dead cells (to determine bactericidal activity), and/or inhibition of growth (to determine bacteriostatic activity). […]

Compound: CC1(C)S[C@@H]2[C@H](NC(=O)C(C(=O)O)c3ccccc3)C(=O)N2[C@H]1C(=O)O (stereo partly drawn) [Carbenicillin]
- bacterial counts compared with LB and LB with bacteriostatic antibiotic [1]: lowest of the three conditions tested

Compound: NC[C@H]1O[C@H](O[C@H]2[C@H](O)[C@@H](O[C@H]3O[C@H](CO)[C@@H](O)[C@H](N)[C@H]3O)[C@H](N)C[C@@H]2N)[C@H](O)[C@@H](O)[C@@H]1O [Kanamycin]
- color change from red-resorufin to green Sytox green 11 (cell death) observed for some of the bacteria [2]: ≤ 5 min
- complete effect for all cells in the tracked fields of vision [2]: 30 to 40 min
